Test results: the NIST ThermoML archive (doi:10.1016/j.fluid.2014.06.024)

Assay: molar heat capacity at constant pressure; xn = mol fraction of the nth substance listed
Details: 101 kPa, Liquid, Small sample (50 mg) DSC

C1CCOCC1 [tetrahydropyran] + c1ccccc1
molar heat capacity at constant pressure [J/K/mol]
Details | 298.15 K | 303.15 K | 308.15 K
x1 = 0.0859 | 136.89 | 138.21 | 139.54
x1 = 0.1279 | 137.71 | 139.06 | 140.44
x1 = 0.1598 | 138.32 | 139.7 | 141.1
x1 = 0.1982 | 139.05 | 140.45 | 141.88
x1 = 0.2254 | 139.56 | 140.97 | 142.43
x1 = 0.2657 | 140.3 | 141.72 | 143.21
x1 = 0.3017 | 140.94 | 142.38 | 143.89
x1 = 0.3509 | 141.8 | 143.26 | 144.8
x1 = 0.3898 | 142.45 | 143.93 | 145.5
x1 = 0.4176 | 142.91 | 144.39 | 145.99
x1 = 0.4428 | 143.31 | 144.81 | 146.42
x1 = 0.4987 | 144.17 | 145.7 | 147.36
x1 = 0.5234 | 144.54 | 146.08 | 147.76
x1 = 0.5592 | 145.05 | 146.61 | 148.32
x1 = 0.5983 | 145.58 | 147.17 | 148.91
x1 = 0.6132 | 145.78 | 147.37 | 149.13
x1 = 0.6478 | 146.23 | 147.84 | 149.63
x1 = 0.6876 | 146.71 | 148.35 | 150.17
x1 = 0.7231 | 147.12 | 148.78 | 150.63
x1 = 0.7623 | 147.55 | 149.22 | 151.1
x1 = 0.7905 | 147.85 | 149.53 | 151.42
x1 = 0.8217 | 148.15 | 149.84 | 151.75
x1 = 0.8507 | 148.43 | 150.12 | 152.04
x1 = 0.9003 | 148.86 | 150.54 | 152.47

C1CCOCC1 [tetrahydropyran] + Cc1ccccc1
molar heat capacity at constant pressure [J/K/mol]
Details | 298.15 K | 303.15 K | 308.15 K
x1 = 0.0937 | 157 | 158.5 | 160.08
x1 = 0.1369 | 156.86 | 158.39 | 159.99
x1 = 0.1932 | 156.64 | 158.18 | 159.81
x1 = 0.2308 | 156.46 | 158.01 | 159.65
x1 = 0.2894 | 156.15 | 157.71 | 159.37
x1 = 0.3187 | 155.98 | 157.54 | 159.22
x1 = 0.3507 | 155.79 | 157.35 | 159.04
x1 = 0.3916 | 155.52 | 157.09 | 158.79
x1 = 0.4206 | 155.32 | 156.9 | 158.61
x1 = 0.4618 | 155.02 | 156.61 | 158.34
x1 = 0.4906 | 154.81 | 156.4 | 158.14
x1 = 0.5137 | 154.63 | 156.23 | 157.98
x1 = 0.5517 | 154.32 | 155.94 | 157.71
x1 = 0.5907 | 154 | 155.62 | 157.42
x1 = 0.6208 | 153.74 | 155.38 | 157.19
x1 = 0.6623 | 153.37 | 155.02 | 156.86
x1 = 0.6987 | 153.03 | 154.69 | 156.55
x1 = 0.7135 | 152.89 | 154.56 | 156.42
x1 = 0.751 | 152.52 | 154.2 | 156.08
x1 = 0.7917 | 152.1 | 153.79 | 155.68
x1 = 0.8246 | 151.75 | 153.44 | 155.34
x1 = 0.8516 | 151.45 | 153.14 | 155.05
x1 = 0.8914 | 150.99 | 152.67 | 154.58
x1 = 0.9123 | 150.74 | 152.41 | 154.32

Cc1ccccc1C [1,2-dimethylbenzene] + C1CCOCC1
molar heat capacity at constant pressure [J/K/mol]
Details | 298.15 K | 303.15 K | 308.15 K
x2 = 0.0918 | 184.41 | 186 | 187.56
x2 = 0.1317 | 183.03 | 184.64 | 186.23
x2 = 0.1765 | 181.48 | 183.1 | 184.72
x2 = 0.2108 | 180.29 | 181.92 | 183.55
x2 = 0.2543 | 178.76 | 180.4 | 182.06
x2 = 0.2876 | 177.59 | 179.23 | 180.91
x2 = 0.3105 | 176.77 | 178.42 | 180.11
x2 = 0.3651 | 174.81 | 176.47 | 178.18
x2 = 0.4187 | 172.86 | 174.53 | 176.26
x2 = 0.4498 | 171.71 | 173.38 | 175.13
x2 = 0.491 | 170.18 | 171.85 | 173.62
x2 = 0.5217 | 169.03 | 170.7 | 172.47
x2 = 0.5518 | 167.88 | 169.56 | 171.34
x2 = 0.5871 | 166.53 | 168.2 | 170
x2 = 0.6218 | 165.19 | 166.86 | 168.66
x2 = 0.6617 | 163.62 | 165.29 | 167.1
x2 = 0.6901 | 162.5 | 164.16 | 165.98
x2 = 0.7219 | 161.23 | 162.89 | 164.71
x2 = 0.7561 | 159.85 | 161.5 | 163.33
x2 = 0.7918 | 158.39 | 160.04 | 161.87
x2 = 0.8231 | 157.11 | 158.75 | 160.58
x2 = 0.8651 | 155.36 | 156.99 | 158.83
x2 = 0.8902 | 154.31 | 155.93 | 157.78
x2 = 0.9234 | 152.9 | 154.52 | 156.37
